target: T1, Type-1 angiotensin II receptor (Homo sapiens, UniProt P30556); test: Ability to displace [125I]AII binding to COS cells transfected with a cDNA encoding human Angiotensin II receptor, type 1; format: cell-based
T1 sequence (P30556 whole entry): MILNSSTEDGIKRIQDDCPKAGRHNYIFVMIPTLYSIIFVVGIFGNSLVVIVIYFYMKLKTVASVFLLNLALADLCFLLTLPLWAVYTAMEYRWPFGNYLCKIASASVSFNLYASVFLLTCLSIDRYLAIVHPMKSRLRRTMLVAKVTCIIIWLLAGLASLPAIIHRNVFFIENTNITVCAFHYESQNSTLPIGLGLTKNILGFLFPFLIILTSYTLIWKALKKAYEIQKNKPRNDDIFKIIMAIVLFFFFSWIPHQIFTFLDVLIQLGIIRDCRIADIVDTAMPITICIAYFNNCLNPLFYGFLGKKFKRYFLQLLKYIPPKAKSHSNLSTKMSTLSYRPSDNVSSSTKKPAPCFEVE

SMILES | Ki [nM]
CCCc1nc2c(C)cc(C)nc2n1Cc1ccc2c(c1)Cc1ccccc1C=C2c1nnn[nH]1 | 0.49
CCc1nc2c(C)cc(C)nc2n1Cc1ccc2c(-c3nnn[nH]3)cc3ccccc3c(=O)c2c1 | 0.66
CCOC(=O)c1c(NCc2ccc3c(-c4nnn[nH]4)cc4ccccc4c(=O)c3c2)cc(C)nc1C | 2.9
CCCc1nc2c(C)cc(C)nc2n1Cc1ccc2c(-c3nnn[nH]3)cc3ccccc3c(=O)c2c1 | 0.29
CCOc1nc2cccc(C(=O)O)c2n1Cc1ccc2c(c1)Oc1ccccc1C=C2c1nnn[nH]1 | 3.9
CCCCC(=O)N(Cc1ccc2c(-c3nnn[nH]3)cc3ccccc3c(=O)c2c1)[C@H](C(=O)O)C(C)C | 8.7
CCCc1nc2c(C)cc(C)nc2n1Cc1ccc2c(c1)Oc1ccccc1C=C2c1nnn[nH]1 | 0.7
Cc1cc(C)c2nc(C3CC3)n(Cc3ccc4c(-c5nnn[nH]5)cc5ccccc5c(=O)c4c3)c2n1 | 0.45
CCCCC(=O)N(Cc1ccc2c(c1)Oc1ccccc1C=C2c1nnn[nH]1)[C@H](C(=O)O)C(C)C | 9.6
CCCCc1nc(Cl)c(C=O)n1Cc1ccc2c(-c3nnn[nH]3)cc3ccccc3c(=O)c2c1 | 12

Further lines, results first:

Ki [nM] | SMILES
1.1 | CCc1cc(NCc2ccc3c(-c4nnn[nH]4)cc4ccccc4c(=O)c3c2)n2nccc2n1
2.7 | CCOc1nc2cccc(C(=O)O)c2n1Cc1ccc2c(-c3nnn[nH]3)cc3ccccc3c(=O)c2c1
2.1 | CCCCc1nc(Cl)c(C(=O)O)n1Cc1ccc2c(-c3nnn[nH]3)cc3ccccc3c(=O)c2c1
0.48 | CCc1cc(OCc2ccc3c(-c4nnn[nH]4)cc4ccccc4c(=O)c3c2)c2nc(OC)ccc2n1
4.3 | Cc1cc(OCc2ccc3c(-c4nnn[nH]4)cc4ccccc4c(=O)c3c2)c2c(n1)CCCC2
4.3 | CCOC(=O)c1c(OCc2ccc3c(-c4nnn[nH]4)cc4ccccc4c(=O)c3c2)cc(C)nc1C
0.65 | CCc1cc(OCc2ccc3c(-c4nnn[nH]4)cc4ccccc4c(=O)c3c2)c2ccccc2n1
2.7 | CCc1cc(OCc2ccc3c(-c4nnn[nH]4)cc4ccccc4c(=O)c3c2)c2cc(C(=O)O)ccc2n1
1.3 | CCc1cc(OCc2ccc3c(-c4nnn[nH]4)cc4ccccc4c(=O)c3c2)c2c(n1)CCCC2

Source: ChEMBL document CHEMBL1128470, “Novel angiotensin II receptor antagonists. Design, synthesis, and in vitro evaluation of dibenzo[a,d]cycloheptene and dibenzo[b,f]oxepin derivatives. Searching for bioisosteres of biphenylyltetrazole using a three-dimensional search technique” (J Med Chem, 1995)
